{"source": "ChEMBL document CHEMBL1201862", "about": "“PubChem BioAssay data set” (2004)", "assay_in_all_cases": "NCI tumour cell line growth inhibition, 48 h", "key": {"LXFL 529": {"test_system": "LXFL 529"}, "HOP-18": {"test_system": "HOP-18"}, "M19-MEL": {"test_system": "M19-MEL"}, "KM-20L2": {"test_system": "KM-20L2"}, "RXF 631": {"test_system": "RXF 631"}, "DMS-114": {"test_system": "DMS-114"}, "XF498": {"test_system": "XF498"}}, "note": "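Tested at 5 concentrations; 48 h exposure; 96-well plates; endpoints linearly interpolated, else capped at highest concentration. GI50 marks 50% less growth.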 Active and inactive are the calls of the source. Cut-off read from the data, not from the text of the source: active = GI50 up to about 1.1 µM and inactive = higher."}
{"smiles": "N#CCCN(c1ccc(/C=N/c2ccccc2Cl)cc1)S(=O)(=O)c1ccccc1", "values": [{"measurement": "GI50", "setting": "LXFL 529", "value": "> 100 µM (inactive)"}, {"measurement": "GI50", "setting": "HOP-18", "value": "> 100 µM (inactive)"}, {"measurement": "GI50", "setting": "M19-MEL", "value": "> 100 µM (inactive)"}, {"measurement": "GI50", "setting": "KM-20L2", "value": "> 100 µM (inactive)"}, {"measurement": "GI50", "setting": "RXF 631", "value": "> 100 µM (inactive)"}, {"measurement": "GI50", "setting": "DMS-114", "value": "> 100 µM (inactive)"}, {"measurement": "GI50", "setting": "XF498", "value": "> 100 µM (inactive)"}]}
{"smiles": "N#CC(C(=N/O)/C(=N\\O)C(C#N)c1ccccc1)c1ccccc1", "note": "(configuration not stated)", "values": [{"measurement": "GI50", "setting": "LXFL 529", "value": "> 100 µM (inactive)"}, {"measurement": "GI50", "setting": "HOP-18", "value": "> 100 µM (inactive)"}, {"measurement": "GI50", "setting": "M19-MEL", "value": "99.1 µM (inactive)"}, {"measurement": "GI50", "setting": "KM-20L2", "value": "> 100 µM (inactive)"}, {"measurement": "GI50", "setting": "RXF 631", "value": "> 100 µM (inactive)"}, {"measurement": "GI50", "setting": "DMS-114", "value": "> 100 µM (inactive)"}, {"measurement": "GI50", "setting": "XF498", "value": "> 100 µM (inactive)"}]}
{"smiles": "O=C(O)/C=C/c1ccc(O)c(O)c1", "note": "[CAFFEIC ACID]", "values": [{"measurement": "GI50", "setting": "LXFL 529", "value": "> 100 µM (inactive)"}, {"measurement": "GI50", "setting": "HOP-18", "value": "> 100 µM (inactive)"}, {"measurement": "GI50", "setting": "M19-MEL", "value": "> 100 µM (inactive)"}, {"measurement": "GI50", "setting": "KM-20L2", "value": "> 100 µM (inactive)"}, {"measurement": "GI50", "setting": "RXF 631", "value": "> 100 µM (inactive)"}, {"measurement": "GI50", "setting": "DMS-114", "value": "> 100 µM (inactive)"}]}
{"smiles": "COc1ccc2cc3n(c2c1)CCc1cc(OC)c(OC)cc1-3", "values": [{"measurement": "GI50", "setting": "LXFL 529", "value": "> 100 µM (inactive)"}, {"measurement": "GI50", "setting": "HOP-18", "value": "> 100 µM (inactive)"}, {"measurement": "GI50", "setting": "M19-MEL", "value": "> 100 µM (inactive)"}, {"measurement": "GI50", "setting": "KM-20L2", "value": "> 100 µM (inactive)"}, {"measurement": "GI50", "setting": "RXF 631", "value": "> 100 µM (inactive)"}, {"measurement": "GI50", "setting": "DMS-114", "value": "> 100 µM (inactive)"}, {"measurement": "GI50", "setting": "XF498", "value": "> 100 µM (inactive)"}]}
{"smiles": "N#CC(Sc1ccccc1)C(N)=O", "note": "(configuration not stated)", "values": [{"measurement": "GI50", "setting": "LXFL 529", "value": "> 100 µM (inactive)"}, {"measurement": "GI50", "setting": "HOP-18", "value": "> 100 µM (inactive)"}, {"measurement": "GI50", "setting": "M19-MEL", "value": "> 100 µM (inactive)"}, {"measurement": "GI50", "setting": "KM-20L2", "value": "> 100 µM (inactive)"}, {"measurement": "GI50", "setting": "RXF 631", "value": "> 100 µM (inactive)"}, {"measurement": "GI50", "setting": "DMS-114", "value": "> 100 µM (inactive)"}, {"measurement": "GI50", "setting": "XF498", "value": "> 100 µM (inactive)"}]}
{"smiles": "CCOC(=O)NC1C2CC(=O)OC(O2)C1OC(C)=O", "note": "(configuration not stated)", "values": [{"measurement": "GI50", "setting": "LXFL 529", "value": "> 100 µM (inactive)"}, {"measurement": "GI50", "setting": "HOP-18", "value": "> 100 µM (inactive)"}, {"measurement": "GI50", "setting": "M19-MEL", "value": "> 100 µM (inactive)"}, {"measurement": "GI50", "setting": "KM-20L2", "value": "> 100 µM (inactive)"}, {"measurement": "GI50", "setting": "RXF 631", "value": "> 100 µM (inactive)"}]}
{"smiles": "COc1ccc(CC2NCCc3cc(OC)c(OC)cc32)cc1", "note": "(configuration not stated)", "values": [{"measurement": "GI50", "setting": "LXFL 529", "value": "> 100 µM (inactive)"}, {"measurement": "GI50", "setting": "HOP-18", "value": "> 100 µM (inactive)"}, {"measurement": "GI50", "setting": "M19-MEL", "value": "> 100 µM (inactive)"}, {"measurement": "GI50", "setting": "KM-20L2", "value": "> 100 µM (inactive)"}, {"measurement": "GI50", "setting": "RXF 631", "value": "> 100 µM (inactive)"}, {"measurement": "GI50", "setting": "DMS-114", "value": "59.6 µM (inactive)"}, {"measurement": "GI50", "setting": "XF498", "value": "> 100 µM (inactive)"}]}
{"smiles": "O=C(CC(=O)c1cccc([N+](=O)[O-])c1)C(=O)Nc1ccccc1", "values": [{"measurement": "GI50", "setting": "LXFL 529", "value": "> 100 µM (inactive)"}, {"measurement": "GI50", "setting": "HOP-18", "value": "> 100 µM (inactive)"}, {"measurement": "GI50", "setting": "M19-MEL", "value": "> 100 µM (inactive)"}, {"measurement": "GI50", "setting": "KM-20L2", "value": "> 100 µM (inactive)"}, {"measurement": "GI50", "setting": "RXF 631", "value": "> 100 µM (inactive)"}, {"measurement": "GI50", "setting": "DMS-114", "value": "> 100 µM (inactive)"}, {"measurement": "GI50", "setting": "XF498", "value": "> 100 µM (inactive)"}]}
{"smiles": "C/C=C/C1(NS(=O)(=O)c2ccc(C)cc2)CCC(C(C)(C)C)CC1", "note": "(configuration not stated)", "values": [{"measurement": "GI50", "setting": "LXFL 529", "value": "37.5 µM (inactive)"}, {"measurement": "GI50", "setting": "HOP-18", "value": "34.9 µM (inactive)"}, {"measurement": "GI50", "setting": "M19-MEL", "value": "19.7 µM (inactive)"}, {"measurement": "GI50", "setting": "KM-20L2", "value": "20.1 µM (inactive)"}, {"measurement": "GI50", "setting": "RXF 631", "value": "24.7 µM (inactive)"}, {"measurement": "GI50", "setting": "DMS-114", "value": "27 µM (inactive)"}, {"measurement": "GI50", "setting": "XF498", "value": "20.2 µM (inactive)"}]}
{"smiles": "O=C1c2ccccc2C(=O)N1C/C=N/NS(=O)(=O)c1ccc(Cl)cc1", "values": [{"measurement": "GI50", "setting": "LXFL 529", "value": "> 100 µM (inactive)"}, {"measurement": "GI50", "setting": "M19-MEL", "value": "> 100 µM (inactive)"}, {"measurement": "GI50", "setting": "KM-20L2", "value": "> 100 µM (inactive)"}, {"measurement": "GI50", "setting": "RXF 631", "value": "> 100 µM (inactive)"}, {"measurement": "GI50", "setting": "DMS-114", "value": "> 100 µM (inactive)"}, {"measurement": "GI50", "setting": "XF498", "value": "> 100 µM (inactive)"}]}
{"smiles": "CCOC(=O)COc1cccc2c1C(=O)CCO2", "values": [{"measurement": "GI50", "setting": "LXFL 529", "value": "> 100 µM (inactive)"}, {"measurement": "GI50", "setting": "M19-MEL", "value": "> 100 µM (inactive)"}, {"measurement": "GI50", "setting": "KM-20L2", "value": "> 100 µM (inactive)"}, {"measurement": "GI50", "setting": "RXF 631", "value": "> 100 µM (inactive)"}, {"measurement": "GI50", "setting": "DMS-114", "value": "> 100 µM (inactive)"}, {"measurement": "GI50", "setting": "XF498", "value": "> 100 µM (inactive)"}]}
{"smiles": "COc1cccc(-c2cc(O)c3cc4c(cc3n2)OCO4)c1", "values": [{"measurement": "GI50", "setting": "LXFL 529", "value": "0.0598 µM (active)"}, {"measurement": "GI50", "setting": "HOP-18", "value": "0.638 µM (active)"}, {"measurement": "GI50", "setting": "M19-MEL", "value": "0.128 µM (active)"}, {"measurement": "GI50", "setting": "KM-20L2", "value": "0.19 µM (active)"}, {"measurement": "GI50", "setting": "RXF 631", "value": "0.442 µM (active)"}, {"measurement": "GI50", "setting": "DMS-114", "value": "0.232 µM (active)"}, {"measurement": "GI50", "setting": "XF498", "value": "0.042 µM (active)"}]}
{"smiles": "CN[C@@H](C)[C@@H](N)c1ccccc1", "values": [{"measurement": "GI50", "setting": "LXFL 529", "value": "> 100 µM (inactive)"}, {"measurement": "GI50", "setting": "HOP-18", "value": "> 100 µM (inactive)"}, {"measurement": "GI50", "setting": "RXF 631", "value": "> 100 µM (inactive)"}]}
{"smiles": "O=C(NOC(=O)c1ccc([N+](=O)[O-])cc1)c1ccc(Cl)cc1", "values": [{"measurement": "GI50", "setting": "LXFL 529", "value": "17.9 µM (inactive)"}, {"measurement": "GI50", "setting": "HOP-18", "value": "2.9 µM (inactive)"}, {"measurement": "GI50", "setting": "M19-MEL", "value": "> 100 µM (inactive)"}, {"measurement": "GI50", "setting": "KM-20L2", "value": "97.1 µM (inactive)"}, {"measurement": "GI50", "setting": "RXF 631", "value": "> 100 µM (inactive)"}, {"measurement": "GI50", "setting": "DMS-114", "value": "44.5 µM (inactive)"}, {"measurement": "GI50", "setting": "XF498", "value": "85.9 µM (inactive)"}]}
{"smiles": "O=C(O)/C(=C\\c1ccccc1Cl)S(=O)(=O)c1ccccc1", "values": [{"measurement": "GI50", "setting": "LXFL 529", "value": "> 100 µM (inactive)"}, {"measurement": "GI50", "setting": "HOP-18", "value": "> 100 µM (inactive)"}, {"measurement": "GI50", "setting": "M19-MEL", "value": "> 100 µM (inactive)"}, {"measurement": "GI50", "setting": "KM-20L2", "value": "> 100 µM (inactive)"}, {"measurement": "GI50", "setting": "RXF 631", "value": "> 100 µM (inactive)"}, {"measurement": "GI50", "setting": "DMS-114", "value": "> 100 µM (inactive)"}]}
{"smiles": "C[Si](C)(C)/C(Br)=C\\CCN1C(=O)CCC1=O", "values": [{"measurement": "GI50", "setting": "LXFL 529", "value": "> 100 µM (inactive)"}, {"measurement": "GI50", "setting": "HOP-18", "value": "> 100 µM (inactive)"}, {"measurement": "GI50", "setting": "M19-MEL", "value": "> 100 µM (inactive)"}, {"measurement": "GI50", "setting": "KM-20L2", "value": "> 100 µM (inactive)"}, {"measurement": "GI50", "setting": "RXF 631", "value": "> 100 µM (inactive)"}, {"measurement": "GI50", "setting": "DMS-114", "value": "> 35.2 µM (inactive)"}, {"measurement": "GI50", "setting": "XF498", "value": "> 100 µM (inactive)"}]}
